One compound from PMC6366974, “The curcumin analog EF24 is a novel senolytic agent” (Aging (Albany NY), 2019) can be followed below.

The test system of one assay is pre-adipocytes IR-SCs. Put plainly: Cell viability assay (flow cytometry, PI). In kind it is cell-based. To be noted: Homo sapiens; Pre-adipocyte, 72 h. A general note: In flow cytometry, cells or beads pass a laser one at a time.
The next assay deals with HUVEC IR-SCs. Put plainly: Cell viability assay (flow cytometry, PI). Format: cell-based. To be noted: Homo sapiens, 72 h.
Assay [1] deals with WI-38 non-senescent cells (NCs). Put plainly: Cell viability assay (flow cytometry, PI). To be noted: for EC50: Homo sapiens, WI-38, 72 h. Format: cell-based, human. The method, then: (§1) Human WI-38 fibroblasts (WI-38, Cat. No. CCL-75), human IMR-90 fibroblasts (IMR-90, Cat. No. CCL-186), human umbilical vein endothelial cells (HUVEC, Cat. No. CRL-1730), human renal epithelial cells (HREC, Cat. No. PCS-400-012) and human pre-adipocytes (Cat. No. PCS-210-010) were newly purchased from the American Type Culture Collection (ATCC, Manassas, VA, USA). WI-38 and IMR-90 cells were cultured in complete Dulbecco’s modified Eagle medium (DMEM, Cat. No. 12430054, Thermo Fisher Scientific, Waltham, MA, USA) supplemented with 10% heat-inactivated fetal bovine serum (FBS, Cat. No. S11150H, Atlanta Biologicals, Flowery Branch, GA, USA), 100 U/mL penicillin and 100 µg/mL streptomycin (Pen Strep, Cat. No. 15140122, Thermo Fisher Scientific, Waltham, MA, USA) in a humidified incubator at 37°C and 5% CO2. HUVEC were cultured in EGM-2 BulletKit (Cat. No. CC-3162, Lonza, Basel, Switzerland) containing basal medium supplemented with growth factors, cytokines and other supplements according to the manufacturer’s protocol. HREC were cultured in renal epithelial cell basal medium (Cat. No. PCS-400-030, ATCC, Manassas, VA, USA) supplemented with renal epithelial cell growth kit (Cat. No. PCS400040, ATCC, Manassas, VA, USA). Human pre-adipocytes were cultured in fibroblast basal medium (Cat. No. PCS-201-030, ATCC, Manassas, VA, USA) supplemented with fibroblast growth kit-low serum (Cat. No. PCS201041, ATCC, Manassas, VA, USA). EF24 (Cat. No. E8409) and HO-3867 (Cat. No. S7501) were purchased from Sigma-Aldrich (St. Louis, MO, USA) and Selleckchem (Houston, TX, USA), respectively. DIMC (Cat. No. 10009986) and 2-HBA (Cat. No. 11879) were both purchased from Cayman Chemical (Ann Arbor, MI, USA).
(§2) Three different methods were used for the induction of SCs, including replicative exhaustion, ionizing radiation and ectopic Ras expression as previously described. Briefly, low-passage WI-38 cells (< 25 passages), IMR-90 cells (< 25 passages), HUVEC (< 10 passages), HREC (< 10 passages) and pre-adipocytes (< 4 passages) were used as NCs or for the induction of senescence. To induce replicative senescence (Rep-SCs), WI-38 and IMR-90 fibroblasts, HUVEC, HREC and pre-adipocytes were subcultured until they stopped to divide and became permanently growth arrested senescence after 38 passages (WI-38), 38 passages (IMR-90), 22 passages (HUVEC), 30 passages (HREC) and 10 passages (pre-adipocytes), respectively. To induce SCs by ionizing radiation (IR-SCs) and ectopic expression of Ras (Ras-SCs), WI-38 NCs were treated as previously described.
(§3) Number of viable cells were quantified using flow cytometry as previously described with slight modifications. Specifically, NCs and SCs were incubated with vehicle (0.1% DMSO) or a test compound at indicated concentrations for 72 h. Following dissociation with 0.25% Trypsin-EDTA (Cat. No. 25200056, Thermo Fisher Scientific, Waltham, MA, USA) at 37°C for 5 min, the cells were harvested in 100 µl pre-cooled phosphate buffered saline (PBS, Cat. No. 20012027, Thermo Fisher Scientific, Waltham, MA, USA) containing 2% FBS and 100 ng/mL propidium iodide (PI, P4170, Sigma-Aldrich, St. Louis, MO, USA) and analyzed using flow cytometry (LSR II, BD Biosciences, San Jose, CA, USA). Percentage of viable cells were determined by counting the number of PI negative cells (viable cells) and then calculated as a ratio of control cells treated with vehicle. In addition, dose-response curves were generated for each compound, and the concentration for 50% of maximal effect (EC50 values) was calculated using GraphPad Prism 6.

Assay [2] relates to WI-38 Ras-induced senescent cells (Ras-SCs). Put plainly: Cell viability assay (flow cytometry, PI). To be noted: 72 h. Format: cell-based, human. The protocol:
as §1, §2, §3

In assay [3] the test system is WI-38 IR-induced senescent cells (IR-SCs). Description: Cell viability assay (flow cytometry, PI). In kind it is cell-based, human. To be noted: WI-38, 72 h; for EC50: Homo sapiens. The protocol:
as §1, §2, §3

The next assay concerns HREC IR-SCs. Put plainly: Cell viability assay (flow cytometry, PI). To be noted: Homo sapiens, 72 h. In kind it is cell-based.
The subject of assay [4] is WI-38 IR-SCs. Put plainly: Combination treatment cell viability and coefficient of drug interaction (CDI). To be noted: 72 h. Format: cell-based, human. The protocol:
as §3
The data were analyzed by analysis of variance (ANOVA) with GraphPad Prism 6 (GraphPad Software, La Jolla, CA, USA). […] To detect the synergistic senolytic activities of EF24 and ABT263, CDI was calculated as previously described.

Another assay concerns WI-38 NCs. Description: Apoptosis analysis (Annexin-V/PI flow cytometry). Format: cell-based, human. To be noted: 2 µM, 72 h. The method, then: (§4) WI-38 NCs and SCs were treated with vehicle or 10 µM Q-VD-OPh (QVD, Cat. No. S7311, Selleckchem, Houston, TX, USA) for 4 h prior to the addition of vehicle or 2 µM EF24 for 72 h. The suspending cells were first harvested from the culture and then pooled with the adherent cells detached by 0.25% Trypsin-EDTA at 37°C for 5 min in 12 × 75 mm polystyrene round-bottom tubes (Cat. No. 352058, Falcon, Corning, NY, USA) containing complete DMEM medium. The cells were stained with Alexa Fluor 647-Annexin V (1: 50, Cat. No. 640912, BioLegend, San Diego, CA, USA) and PI (10 µg/mL, Cat. No. 421301, BioLegend, San Diego, CA, USA) at room temperature for 30 min. The stained cells were analyzed using a BD LSR II flow cytometer.

The test system of assay [5] is WI-38 IR-SCs. Description: Apoptosis analysis (Annexin-V/PI flow cytometry). To be noted: 2 µM, 72 h. In kind it is cell-based, human. The method, then:
as §4

`O=C1/C(=C/c2ccccc2F)CNC/C1=C\c1ccccc1F` [EF24]: the EC50 (in general, the concentration giving half of the maximal effect) worked out at 5.04 µM in the assay on pre-adipocytes IR-SCs; 2.09 µM with HUVEC IR-SCs; 4.32 µM in assay [1] (Table 2); 4.69 µM in assay [1] (WI-38 NCs, 72 h, Table 1 screen of curcumin analogs); 1.74 µM in assay [3] (Table 2); 1.62 µM in assay [3] (WI-38 IR-SCs, 72 h, Table 1 screen of curcumin analogs). Moreover, a half-maximal response in the assay on HREC IR-SCs (EC50) required 1.15 µM. Moreover, the “effect on the cell viability of WI-38 NCs” value in [1] (below 4 μM, 72 h) is “minimal effect”. Further, in assay [2], the “sensitivity of WI-38 Ras-SCs compared with Rep-SCs and IR-SCs” value is “highest sensitivity”. The “selective toxicity against IR-SCs versus NCs (viability)” value in [3] is listed as “lesser toxicities to NCs”. Moreover, in the assay on WI-38 IR-SCs [4], the “cell viability of IR-SCs, agent alone” value is recorded as “dose-dependently reduce”. In addition, in the assay on WI-38 NCs, the “induction of apoptosis in NCs” value is “did not induce apoptosis”. The “number of PI positive cells representing necrotic cells in IR-SCs” value in the assay with WI-38 IR-SCs [5] is listed as “not any significant changes”. The “number and percentage of Annexin-V positive apoptotic cells in IR-SCs” value in the assay with WI-38 IR-SCs [5] (compared to vehicle) is recorded as “significantly increased”.
